Results taken from patent publication US11179449B2, “Immunogenic preprocalcitonin peptides” (Institut Gustave Roussy, priority 2015, dated 2021).

Experiments:
[1] = system: PBMC of patients with non-small cell lung cancer (NSCLC); assay: In vitro stimulation of PBMC of NSCLC patients with 9- or 10-aa ppCT peptides, CD8+/IFNγ+ cells by flow cytometry; assay type: cell-based, human
Method: The peripheral blood mononuclear cells (PBMC) of 11 patients with non-small cell lung cancer (NSCLC) were isolated from the peripheral blood by Ficoll. For each peptide, the PBMC were stimulated twice (D0 and D7) with 20 μM of peptide. The PBMC were cultivated for 2 weeks on 96-well plates, at a rate of 20 million cells/plate, on complete medium (RPMI 1640, 10% SAB, 1% sodium pyruvate, 0.1% penicillin/[…]) in the presence of IL-2 (20 IU/ml)+IL-4 (10 ng/ml)+IL-7 (10 ng/ml).
After 15 days, the PBMC are again stimulated with 2.5 μM of the peptide used during the first stimulation step, in the presence of 100 μg/ml of Brefeldin A, and incubated for 6 hours at 37° C., 5% CO2. The cells are then incubated for 20 minutes with an anti-CD8-APC antibody, then washed in PBS, fixed with PBS-formaldehyde 2% and permeabilised by BSA/saponin. They are then incubated with an anti-IFN-γ-PE antibody. The analysis is carried out by flow cytometry. The statistical study is performed using the Mann-Whitney test and the statistically significant increases are indicated (*p<0.05; **p<0.01; ***p<0.005).

[2] = system: CD8 T lymphocytes expressing IFNγ (splenocytes); assay: Immunisation of HLA-A2 transgenic mice with peptide combinations, CD8+/IFNγ+ splenocytes by flow cytometry after ex vivo restimulation; assay type: in vivo, transgenic mice for the HLA-A2 molecules; conditions: splenocytes of immunised mice
Method: The transgenic mice for the HLA-A2 molecules were immunised 4 times (D0, D7, D14 and D21), under the skin on the flank, with 100 μl of peptide combinations containing an equimolar mixture of 100 μM of each of the peptides and an adjuvant (25 μg of Poly (I:C)) (FIG. 4). At 28 days after the first injection, the mice were sacrificed and the splenocytes were recovered and cultivated overnight in complete medium (RPMI 1640, 10% FBS, 1% sodium pyruvate, 0.1% penicillin/[…]) in the presence of IL-2 (20 IU/ml).
The next day, the splenocytes were stimulated with 2.5 μM of each of the peptides, alone or in combination, in the presence of 10 μg/ml of Brefeldin A and incubated for 6 hours at 37° C., 5% CO2. The cells are then incubated for 20 minutes with an anti-CD8-PE antibody, then washed in PBS, fixed with PBS-formaldehyde 2% and permeabilised with BSA/saponin. They are then incubated with an anti-IFNγ-APC antibody. The analysis is carried out by flow cytometry.

[3] = patients 4, 5 and 7 (respond only to these peptides)

Sequence	lymphocyte response after stimulation ([1]; patient 3)	lymphocyte response after stimulation [1, 3]	CD8 T lymphocyte response induced by the peptide alone on ex vivo stimulation [2]
CMLGTYTQDF (synthetic peptide ppCT91-100)	triggers a response	–	–
FLALSILVL (synthetic peptide ppCT9-17)	–	trigger a lymphocyte response	–
LLAALVQDYV (synthetic peptide ppCT50-59)	triggers a response	trigger a lymphocyte response	strong response
